# Laboratory results reported in ChEMBL document CHEMBL3045592, “Studies of O,O-dimethyl α-(2,4-dichlorophenoxyacetoxy)ethylphosphonate (HW02) as a new herbicide. 1. Synthesis and herbicidal activity of HW02 and analogues as novel inhibitors of pyruvate dehydrogenase complex” (J Agric Food Chem, 2011).
# pIC50: −log10 of the molar value.
# Legend:
# [1] = Inhibition of PDHc in Oryza sativa (rice) shoot mitochondria assessed as decrease in rate of NADH formation using sodium pyruvate as substrate preincubated for 25 min before substrate addition measured after 1 min by spectrophotometric assay
# [2] = molecular target: Pyruvate dehydrogenase complex (Vigna radiata var. radiata); test: Inhibition of PDHc in Vigna radiata var. radiata VC2778A shoot mitochondria assessed as decrease in rate of NADH formation using sodium pyruvate as substrate preincubated for 25 min before substrate addition measured after 1 min by spectrophotometric assay; format: protein-complex assay
# Medicago sativa [3] = test: Post-emergence herbicidal activity against Medicago sativa (alfalfa) assessed as growth inhibition at 450 ai g/ha after 20 days by green house test; format: functional
# Medicago sativa [4] = test: Post-emergence herbicidal activity against Medicago sativa (alfalfa) assessed as growth inhibition at 225 ai g/ha after 20 days by green house test; format: functional
# Medicago sativa [5] = test: Post-emergence herbicidal activity against Medicago sativa (alfalfa) assessed as growth inhibition at 150 ai g/ha after 20 days by green house test; format: functional
# [6] = Toxicity against Oryza sativa (rice) assessed as growth inhibition at 600 ai g/ha post-emergent application measured after 20 days by green house crop selectivity test; format: organism-based; conditions: in vivo, read-out: GI
# Cardamine hirsuta [7] = test: Post-emergence herbicidal activity against Cardamine hirsuta assessed as growth inhibition at 450 ai g/ha after 20 days by green house test; format: functional
# Portulaca oleracea [8] = test: Post-emergence herbicidal activity against Portulaca oleracea assessed as growth inhibition at 225 ai g/ha after 20 days by green house test; format: functional
# Portulaca oleracea [9] = test: Post-emergence herbicidal activity against Portulaca oleracea assessed as growth inhibition at 37.5 ai g/ha after 20 days by green house test; format: functional
# [10] = Toxicity against Oryza sativa (rice) assessed as growth inhibition at 300 ai g/ha post-emergent application measured after 20 days by green house crop selectivity test; format: organism-based; conditions: in vivo, read-out: GI
# [11] = Toxicity against Oryza sativa (rice) assessed as growth inhibition at 225 ai g/ha post-emergent application measured after 20 days by green house crop selectivity test; format: organism-based; conditions: in vivo, read-out: GI
# [12] = Toxicity against Zea mays Gao you 1 (maize) assessed as growth inhibition at 300 ai g/ha post-emergent application measured after 20 days by green house crop selectivity test; format: organism-based; conditions: Gao you 1, zea mays, in vivo, read-out: GI
# [13] = Toxicity against Zea mays Gao you 1 (maize) assessed as growth inhibition at 225 ai g/ha post-emergent application measured after 20 days by green house crop selectivity test; format: organism-based; conditions: Gao you 1, zea mays, in vivo, read-out: GI
# [14] = Toxicity against Triticum aestivum Yang Mai 1 (wheat) assessed as growth inhibition at 600 ai g/ha post-emergent application measured after 20 days by green house crop selectivity test; format: organism-based; conditions: Yang Mai 1, triticum aestivum, in vivo, read-out: GI
# [15] = Toxicity against Triticum aestivum Yang Mai 1 (wheat) assessed as growth inhibition at 450 ai g/ha post-emergent application measured after 20 days by green house crop selectivity test; format: organism-based; conditions: Yang Mai 1, triticum aestivum, in vivo, read-out: GI
# [16] = Toxicity against Triticum aestivum Yang Mai 1 (wheat) assessed as growth inhibition at 225 ai g/ha post-emergent application measured after 20 days by green house crop selectivity test; format: organism-based; conditions: Yang Mai 1, triticum aestivum, in vivo, read-out: GI
# Daucus carota [17] = test: Post-emergence herbicidal activity against Daucus carota (carrot) assessed as growth inhibition at 600 ai g/ha after 20 days by green house test; format: functional
# Cardamine hirsuta [18] = test: Post-emergence herbicidal activity against Cardamine hirsuta assessed as growth inhibition at 225 ai g/ha after 20 days by green house test; format: functional
# Cardamine hirsuta [19] = test: Post-emergence herbicidal activity against Cardamine hirsuta assessed as growth inhibition at 18.75 ai g/ha after 20 days by green house test; format: functional
# Xanthium strumarium [20] = test: Post-emergence herbicidal activity against Xanthium strumarium (cocklebur) assessed as growth inhibition at 450 ai g/ha after 20 days by green house test; format: functional
# Xanthium strumarium [21] = test: Post-emergence herbicidal activity against Xanthium strumarium (cocklebur) assessed as growth inhibition at 300 ai g/ha after 20 days by green house test; format: functional
# Xanthium strumarium [22] = test: Post-emergence herbicidal activity against Xanthium strumarium (cocklebur) assessed as growth inhibition at 75 ai g/ha after 20 days by green house test; format: functional
# Xanthium strumarium [23] = test: Post-emergence herbicidal activity against Xanthium strumarium (cocklebur) assessed as growth inhibition at 37.5 ai g/ha after 20 days by green house test; format: functional
# Amaranthus retroflexus [24] = test: Post-emergence herbicidal activity against Amaranthus retroflexus assessed as growth inhibition at 300 ai g/ha after 20 days by green house test; format: functional
# Amaranthus retroflexus [25] = test: Post-emergence herbicidal activity against Amaranthus retroflexus assessed as growth inhibition at 150 ai g/ha after 20 days by green house test; format: functional
# Amaranthus retroflexus [26] = test: Post-emergence herbicidal activity against Amaranthus retroflexus assessed as growth inhibition at 75 ai g/ha after 20 days by green house test; format: functional
# Amaranthus retroflexus [27] = test: Post-emergence herbicidal activity against Amaranthus retroflexus assessed as growth inhibition at 37.5 ai g/ha after 20 days by green house test; format: functional
# Amaranthus retroflexus [28] = test: Post-emergence herbicidal activity against Amaranthus retroflexus assessed as growth inhibition at 18.75 ai g/ha after 20 days by green house test; format: functional
# Eclipta prostrata [29] = test: Post-emergence herbicidal activity against Eclipta prostrata assessed as growth inhibition at 75 ai g/ha after 20 days by green house test; format: functional
# Eclipta prostrata [30] = test: Post-emergence herbicidal activity against Eclipta prostrata assessed as growth inhibition at 37.5 ai g/ha after 20 days by green house test; format: functional
# Daucus carota [31] = test: Post-emergence herbicidal activity against Daucus carota (carrot) assessed as growth inhibition at 225 ai g/ha after 20 days by green house test; format: functional
# Daucus carota [32] = test: Post-emergence herbicidal activity against Daucus carota (carrot) assessed as growth inhibition at 150 ai g/ha after 20 days by green house test; format: functional
# Daucus carota [33] = test: Post-emergence herbicidal activity against Daucus carota (carrot) assessed as growth inhibition at 75 ai g/ha after 20 days by green house test; format: functional
# Daucus carota [34] = test: Post-emergence herbicidal activity against Daucus carota (carrot) assessed as growth inhibition at 37.5 ai g/ha after 20 days by green house test; format: functional
# [35] = tested on: Brassica rapa subsp. oleifera; test: Post-emergence herbicidal activity against Brassica rapa subsp. oleifera Si Yue Man assessed as growth inhibition at 600 ai g/ha after 20 days by green house test; format: functional
# [36] = tested on: Brassica rapa subsp. oleifera; test: Post-emergence herbicidal activity against Brassica rapa subsp. oleifera Si Yue Man assessed as growth inhibition at 450 ai g/ha after 20 days by green house test; format: functional
# [37] = tested on: Brassica rapa subsp. oleifera; test: Post-emergence herbicidal activity against Brassica rapa subsp. oleifera Si Yue Man assessed as growth inhibition at 225 ai g/ha after 20 days by green house test; format: functional
# [38] = tested on: Brassica rapa subsp. oleifera; test: Post-emergence herbicidal activity against Brassica rapa subsp. oleifera Si Yue Man assessed as growth inhibition at 150 ai g/ha after 20 days by green house test; format: functional
# Digitaria sanguinalis [39] = test: Post-emergence herbicidal activity against Digitaria sanguinalis (hairy crabgrass) assessed as growth inhibition at 300 ai g/ha after 20 days by green house test; format: functional
# Digitaria sanguinalis [40] = test: Post-emergence herbicidal activity against Digitaria sanguinalis (hairy crabgrass) assessed as growth inhibition at 225 ai g/ha after 20 days by green house test; format: functional
smiles,measurement,setting,value
COP(=O)(OC)C(C)OC(=O)COc1ccc(Cl)cc1Cl (stereo not given) [CLACYFOS],pIC50,[1],3.06
same,pIC50,[2],4.89
same,growth inhibition (GI),Medicago sativa [3],100%
same,growth inhibition (GI),Medicago sativa [4],95%
same,growth inhibition (GI),Medicago sativa [5],90%
same,inhibition at 480 h,[6],0%
same,growth inhibition (GI),Cardamine hirsuta [7],100%
same,growth inhibition (GI),Portulaca oleracea [8],90%
same,growth inhibition (GI),Portulaca oleracea [9],65%
same,inhibition at 480 h,[10],0%
same,inhibition at 480 h,[11],0%
same,inhibition at 480 h,[12],0%
same,inhibition at 480 h,[13],0%
same,inhibition at 480 h,[14],0%
same,inhibition at 480 h,[15],0%
same,inhibition at 480 h,[16],0%
same,growth inhibition (GI),Daucus carota [17],100%
same,growth inhibition (GI),Cardamine hirsuta [18],95%
same,growth inhibition (GI),Cardamine hirsuta [19],75%
same,growth inhibition (GI),Xanthium strumarium [20],100%
same,growth inhibition (GI),Xanthium strumarium [21],100%
same,growth inhibition (GI),Xanthium strumarium [22],72%
same,growth inhibition (GI),Xanthium strumarium [23],60%
same,growth inhibition (GI),Amaranthus retroflexus [24],100%
same,growth inhibition (GI),Amaranthus retroflexus [25],96%
same,growth inhibition (GI),Amaranthus retroflexus [26],90%
same,growth inhibition (GI),Amaranthus retroflexus [27],82.5%
same,growth inhibition (GI),Amaranthus retroflexus [28],65%
same,growth inhibition (GI),Eclipta prostrata [29],82.5%
same,growth inhibition (GI),Eclipta prostrata [30],72%
same,growth inhibition (GI),Daucus carota [31],97%
same,growth inhibition (GI),Daucus carota [32],95%
same,growth inhibition (GI),Daucus carota [33],90%
same,growth inhibition (GI),Daucus carota [34],85%
same,growth inhibition (GI),[35],100%
same,growth inhibition (GI),[36],100%
same,growth inhibition (GI),[37],100%
same,growth inhibition (GI),[38],97%
same,growth inhibition (GI),Digitaria sanguinalis [39],32%
same,growth inhibition (GI),Digitaria sanguinalis [40],22.5%
